From PMC11477294, “In Vitro Profiling of the Antiviral Peptide TAT-I24” (International Journal of Molecular Sciences, 2024)
Where a SMILES comes first, the peptide text is derived from it.

Key:
[1] = system: human red blood cells (RBCs); test: Hemolysis assay with red blood cells; type: cell-based; settings: 1 h at 37 °C
Method: Blood from healthy volunteers was collected by venipuncture (Greiner Bio-One, Kremsmünster, Austria) into K2E K2EDTA VacuetteTM tubes (Greiner Bio-One, Kremsmünster, Austria) with 4 mL blood. The assay for hemolysis was adapted from Sæbo et al.. Blood was centrifuged at 1000× g for 10 min, and plasma was kept for further use. Red blood cells were then resuspended in 10 mL PBS and centrifuged again at 1000× g for a total of three times. Cells were then counted using a hemocytometer and seeded at a cell number of 1 × 10^7 cells/100 µL PBS per well in conical 96-well plates (ThermoFisher, Darmstadt, Germany). Next, 1:2 peptide dilutions starting from 40 µM either in PBS or 10% donor serum were prepared, and 100 µL was added to 100 µL of RBC. Plates were then incubated for one hour at 37 °C. As the positive control, three wells with 100 µL RBCs were treated with 100 µL PBS + 0.5% Triton X-100. After incubation, plates were centrifuged at 1000× g for 5 min and supernatants were transferred to flat 96-well plates. Optical density (OD) was determined at 450 nm using a GloMax®-Multi Detection System (Promega, Mannheim, Germany). Images from RBCs from light microscopy and centrifuged plates were taken using an iPhone 12 mini.

[2] = system: MCMV pM123/IE1 protein expression; test: pM123/IE1 immunofluorescence in MCMV-infected NIH/3T3 cells; type: cell-based, mouse cytomegalovirus; settings: MCMV MOI 1, 6 h post-infection
Method: NIH/3T3 cells were seeded at a density of 2 × 10^4 cells/250 µL per well in ibiTreat 8-well chambers (ibidi, Gräfelfing, Germany) and allowed to attach overnight at 37 °C. On the next day, cells were treated with peptides and infected with MCMV at an MOI of 1 with the aid of centrifugal enhancement, twice at 800× g for 15 min. After 6 h of incubation at 37 °C, the supernatants were removed and cells were fixed with 5% formaldehyde for 1 h at room temperature, followed by permeabilization with 0.5% Triton X-100 (Sigma Aldrich, Schnelldorf, Germany) in PBS for 10 min at room temperature. Cells were then incubated with 3% bovine serum albumin (BSA; Sigma Aldrich, Schnelldorf, Germany) in PBS for one hour. After that, anti-m123/IE-1 antibody (clone IE1.01; Center for Proteomics, Rijeka, Croatia) was added at a 1:400 dilution in PBS + 1% BSA and slides were incubated overnight at 4 °C. On the next day, wells were washed twice with PBS. […]

[3] = system: MCMV m123/ie-1 transcript; test: m123/ie-1 transcript qPCR in MCMV-infected NIH/3T3 cells; type: cell-based, mouse cytomegalovirus; settings: MCMV MOI 1, two hours post-infection, duplicate treatments
Method: NIH/3T3 cells were seeded at a density of 2 × 10^4 cells/250 µL per well in a 48-well plate and allowed to attach overnight at 37 °C. On the next day, cells were treated with peptides at the indicated concentrations and infected with MCMV at an MOI of 1 with the aid of centrifugal enhancement, twice at 800× g for 15 min. Cells were then returned to 37 °C for two hours before cell lysis for further processing. RNA isolation, DNase digestion, cDNA reaction and qPCR were performed, as described previously.

[4] = Peptide stability in PBS or PBS with 10% FCS, read out as antiviral activity; type: in vitro ADME; settings: 48 h at 37 °C versus −20 °C, two independent incubations in duplicate
Method: A baculovirus expressing luciferase under the control of the CMV promoter has been described previously. HEK293 cells were seeded at a density of 2 × 10^4 cells/100 µL per well in 96-well plates (Sarstedt, Germany). On the next day, cells were treated with a 1:3 dilution series of peptides and, without further pre-incubation, subsequently infected with baculovirus–luc at a multiplicity of infection (MOI) of 5. Cells were lysed 24 h post-infection using 20 µL Cell Culture Lysis Reagent (Promega, Mannheim, Germany). From the lysates, 10 µL was transferred to white 96-well plates, and luciferase was recorded using a luciferase assay system and a GloMax®-Multi Detection System (Promega, Mannheim, Germany).
NIH/3T3 cells were seeded at a density of 2 × 10^4 cells/100 µL per well in a 96-well plate (Sarstedt, Germany) and allowed to attach overnight. On the next day, cells were treated with a 1:3 dilutions series of peptides and, without further pre-incubation, subsequently infected with the MCMV strain delm157-luc rep. The MCMV stock was prepared and quantified as previously described. […] From the lysates, 10 µL was transferred to white 96-well plates, and luciferase was recorded using a Luciferase Assay System and a GloMax®-Multi Detection System (Promega, Mannheim, Germany). […]

## CC(C)C[C@H](NC(=O)[C@H](CS)NC(=O)[C@H](CCC(N)=O)NC(=O)[C@@H]1CCCN1C(=O)[C@@H]1CCCN1C(=O)[C@H](CCCNC(=N)N)NC(=O)[C@H](CCCNC(=N)N)NC(=O)[C@H](CCCNC(=N)N)NC(=O)[C@H](CCC(N)=O)NC(=O)[C@H](CCCNC(=N)N)NC(=O)[C@H](CCCNC(=N)N)NC(=O)[C@H](CCCCN)NC(=O)[C@H](CCCCN)NC(=O)[C@H](CCCNC(=N)N)NC(=O)CN)C(=O)N[C@@H](C)C(=O)N[C@@H](Cc1ccccc1)C(=O)N[C@@H](Cc1ccc(O)cc1)C(=O)N[C@@H](C)C(=O)N[C@@H](CS)C(=O)N[C@@H](Cc1ccccc1)C(=O)N[C@@H](CS)C(=O)O [TAT-I24] (H-GRKKRRQRRRPPQCLAFYACFC-OH)
[1]; peptide dilutions in PBS or PBS + 10% donor serum, concentrations < 20 µM (1:2 dilutions), OD 450 nm of supernatants, n = 6
  hemolysis of human RBCs: neither induce hemolysis
[1]; peptide dilutions prepared in PBS, up to 20 µM
  swelling of RBCs (pellet size after centrifugation): Swelling of red blood cells
[2]; 1 µM peptide
  number of pM123/IE1-positive cells: clearly reduced
[2]; 10 µM peptide
  number of pM123/IE1-positive cells: clearly reduced
[3]; 1 µM peptide
  m123/ie-1 transcript levels relative to infected cells without peptides: significantly reduced
[3]; 10 µM peptide
  m123/ie-1 transcript levels relative to infected cells without peptides: significantly reduced
[4]; 20 µg peptide in 50 µL PBS with 10% FCS, read-out baculovirus/HEK293 (24 h) and MCMV/NIH/3T3 (72 h) luciferase
  antiviral activity after incubation of peptide with serum (serum stability): slight reduction in antiviral activity
[4]; 20 µg peptide in 50 µL PBS, read-out baculovirus/HEK293 and MCMV/NIH/3T3 luciferase
  antiviral activity after incubation of peptide without serum: curve shaping for both peptides was altered
